Consider eleven compounds from BindingDB's records for doi:10.1021/jm00094a001 (Abbott Laboratories, 1992).

SMILES strings stand for the structures. *1 amine or outer side, *2 acyl side, *3 side chain or, on linkers, in order; H or OH if unused. Where a SMILES comes first, the peptide text is derived from it. [ ]: non-standard residue; d: D form. The star is where a group is joined. Hydrocinnamoyl(4-OSO3H) = O=C(CCc1ccc(OS(=O)(=O)O)cc1)*; X2 = O=C([C@@H]1CC(OS(=O)(=O)O)CN1[*:1])[*:2]; X5 = CCC[C@H]1CCN([*:1])[C@@H]1C(=O)[*:2]; X4 = O=C(c1ccc2cc(OS(=O)(=O)O)ccc2c1)*; X1 = CCCC1CCN([*:1])[C@@H]1C(=O)[*:2]; X3 = O=C(/C(=C/c1ccccc1)N[*:1])[*:2]; NMeF = CN[C@@H](Cc1ccccc1)C(=O)O; Nle = CCCC[C@H](N)C(=O)O; Ava = NCCCCC(=O)O

What is called IC50 is the concentration at which inhibition is half-maximal. Low values mean higher potency, high ones lower potency.

Test [1] addresses Cholecystokinin receptor type A (Cavia porcellus). The experiment in a line: Evaluated in vitro for its binding affinity towards cholecystokinin type A receptor of guinea pig pancreas.
For test [2], the target named is Gastrin/cholecystokinin type B receptor (Cavia porcellus). Put plainly: Evaluated in vitro for its binding affinity towards cholecystokinin type B receptor of guinea pig cortex.
The target is the same in test [3]. The test is described as above. This is another data set of the same source.
Test [4] has the same target. The experiment in a line: In vitro binding affinity towards Cholecystokinin type B receptor of guinea pig cortex.

`CCCC[C@H](NC(=O)CCc1ccc(OS(=O)(=O)O)cc1)C(=O)NCC(=O)N[C@@H](Cc1c[nH]c2ccccc12)C(=O)N[C@@H](CCCC)C(=O)N[C@@H](CC(=O)O)C(=O)N/C(=C\c1ccccc1)C(N)=O` ({Hydrocinnamoyl(4-OSO3H)}-[Nle]GW[Nle]D[X3]-NH2) yielded a 50% inhibitory concentration (IC50) in test [1] of 5.3 nM.
Take `CCCC[C@H](NC(=O)CCc1ccc(OS(=O)(=O)O)cc1)C(=O)NCC(=O)N[C@@H](Cc1c[nH]c2ccccc12)C(=O)N[C@@H](CCCC)C(=O)N1CC(OS(=O)(=O)O)C[C@H]1C(=O)N[C@@H](Cc1ccccc1)C(N)=O` (some centres undefined) ({Hydrocinnamoyl(4-OSO3H)}-[Nle]GW[Nle][X2]F-NH2): the 50% inhibitory concentration (IC50) in test [1] is 16 nM; in test [2] it was 140 nM.
The like results for `CCCC[C@H](NC(=O)CCc1ccc(OS(=O)(=O)O)cc1)C(=O)NCC(=O)N[C@@H](Cc1c[nH]c2ccccc12)C(=O)N1CCC(CCC)[C@H]1C(=O)N[C@@H](CC(=O)O)C(=O)N(C)[C@@H](Cc1ccccc1)C(N)=O` (some centres undefined) ({Hydrocinnamoyl(4-OSO3H)}-[Nle]GW[X1]D[NMeF]-NH2) were, in that order, 4.2 nM and 0.3 nM.
Consider `CCCC[C@H](NC(=O)[C@H](Cc1c[nH]c2ccccc12)NC(=O)CNC(=O)[C@H](CC(C)C)NC(=O)CCc1ccc(OS(=O)(=O)O)cc1)C(=O)N[C@@H](CC(=O)O)C(=O)N[C@@H](Cc1ccccc1)C(N)=O` ({Hydrocinnamoyl(4-OSO3H)}-LGW[Nle]DF-NH2), for which, in test [3], the half-inhibitory concentration (IC50) turned out to be 0.59 nM.
On the same count and under the same terms, next, `CCC[C@H]1CCN(C(=O)[C@H](Cc2c[nH]c3ccccc23)NC(=O)CNC(=O)[C@@H]2CCCN2C(=O)CCc2ccc(OS(=O)(=O)O)cc2)[C@@H]1C(=O)N[C@@H](CC(=O)O)C(=O)N(C)[C@@H](Cc1ccccc1)C(N)=O` ({Hydrocinnamoyl(4-OSO3H)}-PGW[X5]D[NMeF]-NH2): 0.9 nM; `CC(C)C[C@H](NC(=O)[C@H](Cc1c[nH]c2ccccc12)NC(=O)CCCCNC(=O)CCc1ccc(OS(=O)(=O)O)cc1)C(=O)N[C@@H](CC(=O)O)C(=O)N[C@@H](Cc1ccccc1)C(N)=O` ({Hydrocinnamoyl(4-OSO3H)-Ava}-WLDF-NH2): 1.1 nM; `CCCC[C@H](NC(=O)[C@H](Cc1c[nH]c2ccccc12)NC(=O)CN1CC[C@H](NC(=O)CCc2ccc(OS(=O)(=O)O)cc2)C1=O)C(=O)N[C@@H](CC(=O)O)C(=O)N[C@@H](Cc1ccccc1)C(N)=O`: 15 nM.
On the same count and under the same terms, under `CCCC[C@H](NC(=O)c1ccc2cc(OS(=O)(=O)O)ccc2c1)C(=O)NCC(=O)N[C@@H](Cc1c[nH]c2ccccc12)C(=O)N[C@@H](CCCC)C(=O)N[C@@H](CC(=O)O)C(=O)N[C@@H](Cc1ccccc1)C(N)=O` (X4-[Nle]GW[Nle]DF-NH2) stands 32 nM.
Same read-out and setting: next, `CCCC[C@H](NC(=O)CCc1ccc(OS(=O)(=O)O)cc1)C(=O)NCC(=O)N[C@@H](Cc1c[nH]c2ccccc12)C(=O)N[C@@H](CCCC)C(=O)N[C@@H](CC(=O)O)C(=O)N[C@@H](Cc1ccccc1)C(N)=O`: 0.5 nM.
With `CCCC[C@H](NC(=O)CCc1ccc(OS(=O)(=O)O)cc1)C(=O)NCC(=O)N[C@@H](Cc1c[nH]c2ccccc12)C(=O)N[C@@H](CCCC)C(=O)N[C@@H](CC(=O)O)C(=O)N(C)[C@@H](Cc1ccccc1)C(N)=O` [CCK7 analogue] ({Hydrocinnamoyl(4-OSO3H)}-[Nle]GW[Nle]D[NMeF]-NH2), the concentration for half-maximal inhibition (IC50) turned out to be 0.99 nM in test [1] and 10 nM in test [2].
In test [4], `CCCC[C@H](NC(=O)[C@H](Cc1c[nH]c2ccccc12)NC(=O)CNC(=O)[C@@H](CCCC)NC(=O)CCc1ccc(OS(=O)(=O)O)cc1)C(=O)N[C@@H](CC(=O)O)C(=O)N[C@@H](Cc1ccccc1)C(N)=O` gave a half-inhibitory concentration (IC50) of 7.9 nM.
